The test system of data set [1] is MDA-MB-231 cells. Nature of the data set: MTT cell viability assay. In kind it is cell-based, human. The note with it: for Antiproliferative activity at 10μM in MDA-MB-231 / inhibition at 10 µM: % inhibition; for inhibition at 10 µM: Homo sapiens, MDA-MB-231, 48 h, read-out: Antiproliferative activity at 10μM in MDA-MB-231. On the procedure:
(§1) Cell viability assay was performed as described previously. Briefly, cells were seeded in 96 well plates and treated with different concentrations of compound 19 for 48 h. After drug treatment, MTT reagent was added in each well of the plate and cell viability was quantified by measuring the absorbance at 590 nm.

Data set [2] has as its system 4T1 (Mouse Breast Cancer). Nature of the data set: MTT cell viability assay. In kind it is cell-based. The note with it: 10 µM. On the procedure:
as §1

For data set [3], the system named is PANC-1 (Pancreas). Nature of the data set: MTT cell viability assay. It is filed as cell-based. On the procedure:
as §1

In data set [4] the test system is A549 (Lung). Briefly: MTT cell viability assay. In kind it is cell-based. On the procedure: as §1
The subject of data set [5] is DLD1 (Colon). Briefly: MTT cell viability assay. In kind it is cell-based. On the procedure:
as §1

The test system of data set [6] is SK-OV-3 (Ovary). Briefly: MTT cell viability assay. It is filed as cell-based. On the procedure: as §1
Data set [7] concerns PLC/PRF/5 (Liver). Nature of the data set: MTT cell viability assay. It is filed as cell-based. Here is the method: as §1
The subject of data set [8] is A172 (Brain). Briefly: MTT cell viability assay. It is filed as cell-based. Here is the method: as §1
Data set [9] deals with T1, FEN1 protein (Homo sapiens, UniProt P39748).
T1 construct: His-tag (C); made in house; host or cells: E. coli BL21DE3
T1 sequence (P39748 whole entry): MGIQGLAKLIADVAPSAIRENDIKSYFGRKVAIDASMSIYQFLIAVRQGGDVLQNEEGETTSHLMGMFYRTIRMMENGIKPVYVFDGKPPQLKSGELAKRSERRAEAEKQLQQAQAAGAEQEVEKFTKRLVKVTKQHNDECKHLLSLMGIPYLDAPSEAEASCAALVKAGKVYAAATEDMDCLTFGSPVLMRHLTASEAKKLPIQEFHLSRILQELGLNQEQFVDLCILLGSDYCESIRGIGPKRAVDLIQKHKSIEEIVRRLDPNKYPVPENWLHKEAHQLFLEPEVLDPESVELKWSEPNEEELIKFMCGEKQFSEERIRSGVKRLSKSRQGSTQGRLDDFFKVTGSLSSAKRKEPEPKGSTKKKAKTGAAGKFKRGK
Nature of the data set: Flap cleavage assay. In kind it is biochemical. The note with it: compound 19 at 5, 10, 20 µM. On the procedure: Purification of FEN 1: Full length FEN1 DNA template was taken from pShuttle-FEN1hWT, a gift from Sheila Stewart (Addgene plasmid#35027) is subcloned into a pET41a expression vector containing C-terminal His-tag. pET41FEN1His freshly transformed into expression host BL21DE3 E. coli cells (Novagene), single colonies picked and inoculated in 5ml of LB media containing 50μg/ml of Kanamycin, grown for 3 to 4 hrs and further subcultured in 100 ml of LB medium containing 50μg/ml of Kanamycin and grown at 37°C till the OD reached to 0.6-0.7, induced at 0.5 mM IPTG at 16°C for 18hrs. Pellets were collected and lysed in 20 mM tris 150 mM NaCl (Lysis buffer) containing 1mM PMSF and 1mM benzamidine hydrochloride and purified by Ni-NTA affinity chromatography.
Flap cleavage assay: All oligos were purchased from Integrated DNA Technologies and dissolved in nuclase free water at concentration of 100μM. FAM-labeled 25+6 Flap-mer (5’-[…]-3’*6FAM)) was annealed with 52- mer (5’-[…]-3’) and 27-mer (5’-[…]-3’) to form a complementary double strand flap cleavage substrate. […] The cleaved and uncleaved DNA molecules are separated on 15% Urea gel and bands were detected by Image Quant LAS 4010 (GE Healthcare).

Regarding `COc1cc(/C=C/c2cc(=O)oc3c2ccc2c(OC)cccc23)cc(OC)c1` [Compound 26], the “Antiproliferative activity at 10μM in MDA-MB-231” value in [1] amounted to 50.03%. Moreover, in data set [2], the “% Inhibition of cell viability at 10 µM, 4T1 (Mouse Breast Cancer)” value is reported as 36.12%. Besides, in data set [3], the “% Inhibition of cell viability at 10 µM, PANC-1 (Pancreas)” value was “NA (NA= Not active (% Inhibition <30%))”. Further, the “% Inhibition of cell viability at 10 µM, A549 (Lung)” value in data set [4] was “NA (NA= Not active (% Inhibition <30%))”. In [5], the “% Inhibition of cell viability at 10 µM, DLD1 (Colon)” value is given as “NA (NA= Not active (% Inhibition <30%))”.

In the case of `N#Cc1ccc(/C=C/c2cc(=O)oc3c2ccc2ccccc23)cc1` [Compound 14], the inhibition at 10 µM in data set [1] turned out to be 12.4%.

As for `COc1cccc(OC)c1/C=C/c1cc(=O)oc2c1ccc1c(OC)cccc12` [Compound 28], the melting point is 178 to 179 °C.

The molecule `Cc1cccc2c1ccc1c(/C=C/c3ccccc3)cc(=O)oc12` [Compound 32] yielded a melting point of 178 to 179 °C. The inhibition at 10 µM in data set [1] came to 18.2%.

Consider `CN(C)c1ccc(/C=C/c2cc(=O)oc3c2ccc2ccccc23)cc1` [Compound 12], for which the “Antiproliferative activity at 10μM in MDA-MB-231” value in data set [1] was found to be 4.62%.

For the molecule `COc1ccc(/C=C/c2cc(=O)oc3c2ccc2c(C)cccc23)c(OC)c1` [Compound 35], the inhibition at 10 µM in [1] came out at 12.8%.

The molecule `COc1cccc2c1ccc1c(/C=C/c3ccc(C#N)cc3)cc(=O)oc12` [Compound 25] displayed a melting point of 188 to 189 °C. Further, the inhibition at 10 µM in [1] worked out at 27.9%.

Molecule `COc1ccc(OC)c(/C=C/c2cc(=O)oc3c2ccc2ccccc23)c1` [Compound 20] had a melting point of 168 to 170 °C. Besides, in data set [1], the inhibition at 10 µM worked out at 7.53%.

On to `COc1cccc(/C=C/c2cc(=O)oc3c2ccc2ccccc23)c1` [Compound 15], for which the melting point fell in the range of 145 to 146 °C.

As to `COc1ccc(/C=C/c2cc(=O)oc3c2ccc2c(OC)cccc23)cc1OC` [Compound 27], the inhibition at 10 µM in data set [1] worked out at 8.81%.

`COc1cc(/C=C/c2cc(=O)oc3c2ccc2c(OC)cccc23)cc(OC)c1OC` [Compound 31] gave a melting point of 205 to 206 °C. The inhibition at 10 µM in data set [1] worked out at 1.7%.

Consider `COc1ccc(OC)c(/C=C/c2cc(=O)oc3c2ccc2c(OC)cccc23)c1` [Compound 29], for which the inhibition at 10 µM in [1] stood at 10.4%.

Take `COc1cc(/C=C/c2cc(=O)oc3c2ccc2ccccc23)cc(OC)c1OC` [Compound 18]: the melting point is 172 to 173 °C. In addition, the inhibition at 10 µM in data set [1] was 8.2%.

In the case of `COc1cc(/C=C/c2cc(=O)oc3c2ccc2c(C)cccc23)cc(OC)c1OC` [Compound 38], the inhibition at 10 µM in data set [1] worked out at 22%.

As for `COc1ccc(/C=C/c2cc(=O)oc3c2ccc2c(OC)cccc23)cc1` [Compound 23], the melting point was 170 to 171 °C. Also, in data set [1], the inhibition at 10 µM was 6.04%.

Molecule `COc1ccc(/C=C/c2cc(=O)oc3c2ccc2ccccc23)c(OC)c1` [Compound 21] returned a melting point of 181 to 183 °C. Also, in [1], the inhibition at 10 µM was 0.16%.

For the molecule `Cc1cccc2c1ccc1c(/C=C/c3ccc([N+](=O)[O-])cc3)cc(=O)oc12` [Compound 33], the melting point is 238 to 239 °C. Further, in [1], the inhibition at 10 µM amounted to 6.12%.

Turning to `COc1ccc(/C=C/c2cc(=O)oc3c2ccc2ccccc23)cc1OC` [Compound 17], the melting point fell in the range of 180 to 182 °C.

`COc1cccc(OC)c1/C=C/c1cc(=O)oc2c1ccc1ccccc12` [Compound 16] came in with a melting point of 174 to 175 °C. In addition, the “% Inhibition of cell viability at 10 µM, MDA-MB-231 (Breast)” value in [1] (10 µM) is 56.48%. The inhibition at 10 µM in [1] was over 50%. The “% Inhibition of cell viability at 10 µM, SK-OV-3 (Ovary)” value in data set [6] was “NA (NA= Not active (% Inhibition <30%))”. Moreover, the “% Inhibition of cell viability at 10 µM, 4T1 (Mouse Breast Cancer)” value in [2] stood at 33.89%. Further, the “% Inhibition of cell viability at 10 µM, PANC-1 (Pancreas)” value in data set [3] was “NA (NA= Not active (% Inhibition <30%))”. In [4], the “% Inhibition of cell viability at 10 µM, A549 (Lung)” value is listed as “NA (NA= Not active (% Inhibition <30%))”. The “% Inhibition of cell viability at 10 µM, PLC/PRF/5 (Liver)” value in [7] is reported as “NA (NA= Not active (% Inhibition <30%))”. In addition, the “% Inhibition of cell viability at 10 µM, A172 (Brain)” value in data set [8] is recorded as “NA (NA= Not active (% Inhibition <30%))”. Moreover, in data set [5], the “% Inhibition of cell viability at 10 µM, DLD1 (Colon)” value is given as “NA (NA= Not active (% Inhibition <30%))”.

`COc1ccc(/C=C/c2cc(=O)oc3c2ccc2c(OC)cccc23)c(OC)c1` [Compound 30]: the inhibition at 10 µM in data set [1] worked out at 17.9%.

Turning to `O=C(O)c1cc[c]([Sb](=[O])([OH])[OH])cc1[N+](=O)[O-]` [NSC13755, reference compound], in data set [9], the “Inhibition of FEN1 flap cleavage activity” value is “less clevage”.

Take `COc1cccc(OC)c1/C=C/c1cc(=O)oc2c1ccc1c(C)cccc12` [Compound 37]: the melting point was in the range of 160 to 161 °C. Also, the inhibition at 10 µM in data set [1] worked out at 11.6%.

For the molecule `COc1cc(/C=C/c2cc(=O)oc3c2ccc2c(C)cccc23)cc(OC)c1` [Compound 34], in data set [1], the inhibition at 10 µM worked out at 0.54%.

`COc1ccc(/C=C/c2cc(=O)oc3c2ccc2c(C)cccc23)cc1OC` [Compound 39]: the inhibition at 10 µM in data set [1] is 10.1%.

For the molecule `COc1cccc2c1ccc1c(/C=C/c3ccc([N+](=O)[O-])cc3)cc(=O)oc12` [Compound 24], the melting point lay in the range of 220 to 222 °C. Besides, the inhibition at 10 µM in data set [1] came to 20%.

Take `COc1ccc(/C=C/c2cc(=O)oc3c2ccc2ccccc23)cc1` [Compound 11]: the melting point is 142 to 144 °C. For the same molecule, the inhibition at 10 µM in data set [1] turned out to be 1.46%.

The values are drawn from article PMC5587642, “A Novel Benzocoumarin-Stilbene Hybrid as a DNA ligase I inhibitor with in vitro and in vivo anti-tumor activity in breast cancer models” (Scientific Reports, 2017).
